Data on 30 molecules can be found in patent publication US20150031668A1, “CHROMAN DERIVATIVES AS TRPM8 INHIBITORS” (AMGEN INC., priority 2013, published 2015).

Structures can show the parent of a compound that is named as a salt.

The target in the assay is T1, human TRPM8 (Homo sapiens, UniProt Q7Z2W7).
T1 construct: expressed in transfected cells; host or cells: Chinese hamster ovary (CHO) cells, T-REx tetracycline-inducible expression system (Invitrogen); co-transfected with pcDNA3.1 aequorin
T1 sequence (Q7Z2W7 whole entry): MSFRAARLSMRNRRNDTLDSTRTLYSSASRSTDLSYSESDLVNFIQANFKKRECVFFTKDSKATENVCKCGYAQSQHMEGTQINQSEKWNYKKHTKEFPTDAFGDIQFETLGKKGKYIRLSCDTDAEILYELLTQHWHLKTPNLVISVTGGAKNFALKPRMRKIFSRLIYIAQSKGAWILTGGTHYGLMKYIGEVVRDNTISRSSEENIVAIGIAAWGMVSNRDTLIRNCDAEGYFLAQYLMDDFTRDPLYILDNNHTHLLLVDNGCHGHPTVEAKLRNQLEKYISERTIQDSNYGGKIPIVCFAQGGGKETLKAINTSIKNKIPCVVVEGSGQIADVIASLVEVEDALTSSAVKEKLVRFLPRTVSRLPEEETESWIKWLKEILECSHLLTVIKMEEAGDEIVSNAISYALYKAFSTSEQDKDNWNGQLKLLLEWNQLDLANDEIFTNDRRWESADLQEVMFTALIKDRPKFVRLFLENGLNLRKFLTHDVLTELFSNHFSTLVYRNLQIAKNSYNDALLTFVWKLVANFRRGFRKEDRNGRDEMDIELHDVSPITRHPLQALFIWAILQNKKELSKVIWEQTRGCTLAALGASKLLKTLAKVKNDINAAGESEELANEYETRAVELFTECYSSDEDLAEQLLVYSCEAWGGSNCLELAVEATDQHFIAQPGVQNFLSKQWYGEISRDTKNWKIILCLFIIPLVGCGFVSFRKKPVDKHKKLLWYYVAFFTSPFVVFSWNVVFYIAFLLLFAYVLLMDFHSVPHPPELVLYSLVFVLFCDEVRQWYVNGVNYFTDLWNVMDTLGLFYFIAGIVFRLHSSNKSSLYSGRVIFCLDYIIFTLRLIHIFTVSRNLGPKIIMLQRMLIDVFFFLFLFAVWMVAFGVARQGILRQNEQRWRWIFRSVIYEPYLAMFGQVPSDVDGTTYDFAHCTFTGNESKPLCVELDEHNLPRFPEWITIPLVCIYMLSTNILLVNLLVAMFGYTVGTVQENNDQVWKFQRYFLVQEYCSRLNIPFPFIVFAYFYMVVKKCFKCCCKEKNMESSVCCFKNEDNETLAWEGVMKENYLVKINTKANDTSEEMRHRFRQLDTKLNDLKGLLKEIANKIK
The assay can be described thus: Luminescence readout assay for measuring intracellular calcium (aequorin, CHO cells expressing human TRPM8; icilin, L-menthol or cold activation). Format: cell-based. The following applies: CHO cells expressing human TRPM8, icilin activation (1 μM), aequorin luminescence; read-out: hTRPM8 IC50. As to the method:
Luminescence Readout Assay for Measuring Intracellular Calcium
A stable Chinese hamster ovary cell line expressing human TRPM8 was generated using tetracycline inducible T-REx™ expression system from Invitrogen, Inc. (Carlsbad, Calif.). […] Twenty four hours before the assay, cells were seeded in 96-well plates and TRPM8 expression was induced with 0.5 μg/ml tetracycline. On the day of the assay, culture media was removed and cells were incubated with assay buffer
Potential antagonists were added 2.5 min prior to the addition of agonist, 1 μM icilin, 100 μM L-menthol, or 1 min prior to the addition of cold buffer (<10° C.). The luminescence was measured by a CCD camera based FLASH-luminometer built by Amgen, Inc. A cooling device attached to FLASH luminometer was used for cold activation.
In general terms: A change in cytosolic calcium serves as a functional read-out for many receptors and channels.
For orientation: IC50 means the point on the concentration scale where inhibition reaches its midpoint. For `O=C(N[C@]1(c2ccc(OC(F)(F)F)cc2)CCOc2cccnc21)c1cc2n(n1)CCCO2` [Example 220, (S)-N-(4-(4-(trifluoromethoxy)phenyl)-3,4-dihydro-2H-pyrano[3,2-b]pyridin-4-yl)-6,7-dihydro-5H-pyrazolo[5,1-b] [1,3]oxazine-2-carboxamide formate], the IC50 is 16 nM. For the molecule `O=C(N[C@]1(c2ccc(OC(F)(F)F)cc2)CCOc2cccnc21)c1cc2ccccc2o1` [Example 236, (S)-N-(4-(4-(trifluoromethoxy)phenyl)-3,4-dihydro-2H-pyrano[3,2-b]pyridin-4-yl)benzofuran-2-carboxamide formate], the IC50 was found to be 66.5 nM. To `O=C(Nc1ccc(-c2noc(=O)[nH]2)nc1)N[C@]1(c2ccc(OC(F)(F)F)c(F)c2)CCOc2cccnc21` [Example 109, (S)-1-(4-(3-fluoro-4-(trifluoromethoxy)phenyl)-3,4-dihydro-2H-pyrano[3,2-b]pyridin-4-yl)-3-(6-(5-oxo-4,5-dihydro-1,2,4-oxadiazol-3-yl)pyridin-3-yl)urea] belongs 3060 nM. For `CC(C)Cc1cc(C(=O)N[C@]2(c3ccc(OC(F)(F)F)c(F)c3)CCOc3cccnc32)ccc1C(=O)O` [Example 293, (S)-4-((4-(3-fluoro-4-(trifluoromethoxy)phenyl)-3,4-dihydro-2H-pyrano[3,2-b]pyridin-4-yl)carbamoyl)-2-isobutylbenzoic acid] the value was 7 nM; for `Cn1cc2c(C(=O)N[C@]3(c4ccc(OC(F)(F)F)cc4)CCOc4cccnc43)cccc2n1` [Example 264, (S)-2-methyl-N-(4-(4-(trifluoromethoxy)phenyl)-3,4-dihydro-2H-pyrano[3,2-b]pyridin-4-yl)-2H-indazole-4-carboxamide formate], 74 nM; for `O=C(NC1(c2ccc(OC(F)(F)F)cc2)CCOc2cccnc21)c1ccc2[nH]c(=O)oc2c1` (stereo not drawn) [Example 22, 2-oxo-N-(4-(4-(trifluoromethoxy)phenyl)-3,4-dihydro-2H-pyrano[3,2-b]pyridin-4-yl)-2,3-dihydrobenzo[d]oxazole-6-carboxamide], 14 nM.

As to `COC(=O)c1ccc(C(=O)N[C@]2(c3ccc(OC(F)(F)F)cc3F)CCOc3cccnc32)nc1` [Example 174, (S)-methyl 6-((4-(2-fluoro-4-(trifluoromethoxy)phenyl)-3,4-dihydro-2H-pyrano[3,2-b]pyridin-4-yl)carbamoyl) nicotinate], the IC50 was found to be 128 nM. To `O=C(N[C@]1(c2ccc(-c3cc(F)ccc3CO)cc2)CCOc2cccnc21)c1ccc(F)cc1` [Example 140, (S)-4-fluoro-N-(4-(5′-fluoro-2′-(hydroxymethyl)-[1,1′-biphenyl]-4-yl)-3,4-dihydro-2H-pyrano[3,2-b]pyridin-4-yl)benzamide] belongs 340 nM. For `O=C(N[C@]1(c2ccc(OC(F)(F)F)c(F)c2)CCOc2cccnc21)N1CCCCC1` [Example 98, (S)-N-(4-(3-fluoro-4-(trifluoromethoxy)phenyl)-3,4-dihydro-2H-pyrano[3,2-b]pyridin-4-yl)piperidine-1-carboxamide] the value was 23 nM; for `O=C(N[C@]1(c2ccc(OC(F)(F)F)cc2)CCOc2cccnc21)c1cn2ncccc2n1` [Example 243, (S)-N-(4-(4-(trifluoromethoxy)phenyl)-3,4-dihydro-2H-pyrano[3,2-b]pyridin-4-yl)imidazo[1,2-b] pyridazine-2-carboxamide formate], 16.6 nM; for `O=C(N[C@]1(c2ccc(OC(F)(F)F)c(F)c2)CCOc2cccnc21)c1c[nH]c(C(=O)O)c1` [Example 320, (S)-4-((4-(3-fluoro-4-(trifluoro-methoxy)phenyl)-3,4-dihydro-2H-pyrano[3,2-b]pyridin-4-yl)carbamoyl)-1H-pyrrole-2-carboxylic acid], 3700 nM. Take `O=C(Nc1cccnc1)NC1(c2ccc(C(F)(F)F)cc2)CCCc2cccnc21` (stereo not drawn) [Example 71, 1-(pyridin-3-yl)-3-(8-(4-(trifluoromethyl)phenyl)-5,6,7,8-tetrahydroquinolin-8-yl)urea]: the IC50 was 143 nM.

With `COC(=O)c1ccc(S(=O)(=O)N[C@]2(c3ccc(OC(F)(F)F)c(F)c3)CCOc3cccnc32)cc1` [Example 286, (S)-methyl 4-(N-(4-(3-fluoro-4-(trifluoromethoxy)phenyl)-3,4-dihydro-2H-pyrano[3,2-b]pyridin-4-yl)sulfamoyl)benzoate], the IC50 was 754 nM. To `O=C(N[C@]1(c2ccc(C(F)(F)F)cc2)CCOc2cccnc21)c1ccc2cc[nH]c2c1` [Example 36, (S)-N-(4-(4-(trifluoromethyl)phenyl)-3,4-dihydro-2H-pyrano[3,2-b]pyridin-4-yl)-1H-indole-6-carboxamide] belongs 36 nM; to `O=C(N[C@]1(c2ccc(OC(F)(F)F)cc2)CCOc2cccnc21)c1ncc[nH]1` [Example 210, (S)-N-(4-(4-(trifluoromethoxy)phenyl)-3,4-dihydro-2H-pyrano[3,2-b]pyridin-4-yl)-1H-imidazole-2-carboxamide formate], 2310 nM. Regarding `O=C(N[C@]1(c2ccc(Cl)c(F)c2)CCOc2cccnc21)c1ccccc1` (single isomer, unassigned) [Example 15], the IC50 was 54 nM. For the molecule `O=C(Nc1ccncc1)N[C@]1(c2ccc(OC(F)(F)F)c(F)c2)CCOc2cccnc21` [Example 96, (S)-1-(4-(3-fluoro-4-(trifluoromethoxy)phenyl)-3,4-dihydro-2H-pyrano[3,2-b]pyridin-4-yl)-3-(pyridin-4-yl)urea], the IC50 came out at 6 nM.

Consider `O=C(N[C@]1(c2ccc(OC(F)(F)F)cc2)CCOc2cccnc21)c1c[nH]c2ccccc12` [Example 234, (S)-N-(4-(4-(trifluoromethoxy)phenyl)-3,4-dihydro-2H-pyrano[3,2-b]pyridin-4-yl)-1H-indole-3-carboxamide foraiate], for which the IC50 amounted to 56.8 nM. To `O=C(N[C@]1(c2ccc(C(F)(F)F)cc2)CCOc2cccnc21)c1ccn2ccnc2c1` [Example 49, (S)-N-(4-(4-(trifluoromethyl)phenyl)-3,4-dihydro-2H-pyrano[3,2-b]pyridin-4-yl)imidazo[1,2-a]pyridine-7-carboxamide] belongs 43 nM; to `O=C(N[C@]1(c2ccc(C(F)(F)F)cc2)CCOc2cccnc21)c1ccc(O)cn1` [Example 40, (S)-5-hydroxy-N-(4-(4-(trifluoromethyl)phenyl)-3,4-dihydro-2H-pyrano[3,2-b]pyridin-4-yl)picolinamide], 7 nM; to `O=C(N[C@]1(c2ccc(OC(F)(F)F)cc2)CCOc2cccnc21)c1cccc2cnccc12` [Example 249, (S)-N-(4-(4-(trifluoromethoxy)phenyl)-3,4-dihydro-2H-pyrano[3,2-b]pyridin-4-yl)isoquinoline-5-carboxamide formate], 99 nM. For `NS(=O)(=O)c1ccc(C(=O)N[C@]2(c3ccc(OC(F)(F)F)c(F)c3)CCOc3cccnc32)cc1` [Example 184, (S)-N-(4-(3-fluoro-4-(trifluoromethoxy)phenyl)-3,4-dihydro-2H-pyrano[3,2-b]pyridin-4-yl)-sulfamoylbenzamide] the value was 50 nM; for `O=C(N[C@]1(c2ccc(OC(F)(F)F)cc2)CCOc2cccnc21)c1ccns1` [Example 213, (S)-N-(4-(4-(trifluoromethoxy)phenyl)-3,4-dihydro-2H-pyrano[3,2-b]pyridin-4-yl)isothiazole-5-carboxamide formate], 81 nM; for `NC(=O)c1ccc(C(=O)N[C@]2(c3ccc(OC(F)(F)F)c(F)c3)CCOc3cccnc32)cc1` [Example 195, (S)-N1-(4-(3-fluoro-4-(trifluoromethoxy)phenyl)-3,4-dihydro-2H-pyrano[3,2-b]pyridin-4-yl) terephthalamide 2,2,2-trifluoroacetate], 6 nM. To `O=C(N[C@]1(c2ccc(OC(F)(F)F)cc2)CCOc2cccnc21)c1cccc2cccnc12` [Example 221, (S)-N-(4-(4-(trifluoromethoxy)phenyl)-3,4-dihydro-2H-pyrano[3,2-b]pyridin-4-yl)quinoline-8-carboxamide formate] belongs 31 nM; to `O=C(N[C@]1(c2ccc(OC(F)(F)F)c(F)c2)CCOc2cccnc21)N1CCCC1` [Example 104, (S)-N-(4-(3-fluoro-4-(trifluoromethoxy)phenyl)-3,4-dihydro-2H-pyrano[3,2-b]pyridin-4-yl)pyrrolidine-1-carboxamide], 85 nM; to `O=C(N[C@]1(c2ccc(OC(F)(F)F)cc2)CCOc2cccnc21)c1ccc(-c2cnco2)cc1` [Example 273, (S)-4-(oxazol-5-yl)-N-(4-(4-(trifluoromethoxy)phenyl)-3,4-dihydro-2H-pyrano[3,2-b]pyridin-4-yl)benzamide formate], 19 nM.

As for `COC(=O)c1ccc(C(=O)N[C@]2(c3ccc(C(F)(F)F)cc3)CCOc3cccnc32)nc1` [Example 175, (S)-methyl 6-((4-(4-(trifluoromethyl)phenyl)-3,4-dihydro-2H-pyrano[3,2-b]pyridin-4-yl)carbamoyl) nicotinate], the IC50 came out at 43 nM. In the case of `COC(=O)c1ccc(NC(=O)N[C@]2(c3ccc(OC(F)(F)F)c(F)c3)CCOc3cccnc32)cc1` [Example 90, (S)-methyl 4-(3-(4-(3-fluoro-4-(trifluoromethoxy)phenyl)-3,4-dihydro-2H-pyrano[3,2-b]pyridin-4-yl)ureido)benzoate], the IC50 came out at 36 nM. For `COc1cccc(-c2ccc([C@@]3(NC(=O)c4ccc(F)cc4)CCOc4cccnc43)cc2)c1O` [Example 135, (S)-4-fluoro-N-(4-(2′-hydroxy-3′-methoxy-[1,1′-biphenyl]-4-yl)-3,4-dihydro-2H-pyrano[3,2-b]pyridin-4-yl)benzamide] the value was 113 nM.
